According to PubChem BioAssay (NCI):
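All cell lines were grown in 96-well plates and treated with compound for 48 hours. Abbreviation: GI50, concentration required for 50% inhibition of growth. The concentration for full growth arrest is given as TGI.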

Experiments:
Test in all cases: DTP human tumour cell line panel, 48 h
[1] = tested on: NCI-H226 lung
[2] = tested on: SK-OV-3 ovarian
[3] = tested on: NCI-H522 lung
[4] = tested on: U251 CNS
[5] = tested on: UACC-62 melanoma
[6] = tested on: UO-31 renal
[7] = tested on: 786-0 renal
[8] = tested on: HCC-2998 colon
[9] = tested on: SF-268 CNS
[10] = tested on: SN12C renal

Compound | GI50 [1] [µM] | TGI [1] [µM] | GI50 [2] [µM] | TGI [2] [µM] | GI50 [3] [µM] | TGI [3] [µM] | GI50 [4] [µM] | TGI [4] [µM] | GI50 [5] [µM] | TGI [5] [µM] | GI50 [6] [µM] | TGI [6] [µM] | GI50 [7] [µM] | TGI [7] [µM] | GI50 [8] [µM] | TGI [8] [µM] | GI50 [9] [µM] | TGI [9] [µM] | GI50 [10] [µM] | TGI [10] [µM]
CCC(C)CC(C)C(=O)c1c(O)ccn(O)c1=O (stereo not given) | 15.8 | 75.3 | 6.2 | > 100 | 2.46 | > 100 | 2.14 | > 100 | 2.27 | 6.74 | 0.376 | 4.31 | 3.65 | > 100 | 6 | > 100 | 1.29 | 45.3 | 1.38 | 16.2
O=C(Cc1ccc(Nc2ccnc(C(F)(F)F)c2)cc1)N/N=C/c1ccccc1O | 3.85 | > 55.6 | 3.13 | > 68.5 | 8.96 | 35.9 | 1.87 | > 54.8 | 2.17 | 21.5 | 1.52 | > 26 | 3.59 | > 62.7 | 1.16 | 10.8 | 2.17 | > 73.8 | 2.9 | > 58.6
CCCCCC#COC1CC(C)CC[C@@H]1C(C)C (stereo not given in full) |  | > 100 |  | > 100 |  | 52.2 |  | > 100 |  | > 100 |  | > 100 |  | > 100 |  | > 100 |  | > 100 |  | > 100
Cc1cc(C(O)(c2ccc(Nc3ccccc3)cc2)c2ccc(Nc3ccc(S(=O)(=O)O)cc3)cc2)ccc1N (stereo not given) | 1.63 | 3.42 | 2.53 | 5.92 | 1.26 | 4.44 | 0.772 | 2.05 | 0.499 | 2.12 | 1.12 | 2.38 | 1.02 | 2.27 | 1.23 | 2.58 | 1.68 | 4.19 | 1.82 | 9.12
Cc1cc2c(cc1C)[n+](=O)c(C(=O)CC(=O)C(=O)Nc1ccccc1C(C)C)c(C)n2[O-] |  | > 100 |  | > 100 |  | > 100 |  | > 100 |  | > 100 |  | > 100 |  | > 100 |  | > 100 |  | > 100 |  | > 100
O=C(NS(=O)(=O)c1ccc(NC[C@H]2COCCO2)c([N+](=O)[O-])c1)c1ccc(N2CCN(CC3=C(c4ccc(Cl)cc4)CC4(CCC4)CC3)CC2)cc1Oc1cnc2[nH]ccc2c1 | 1.88 | 3.93 | 1.95 | 4.57 | 1.93 | 4.62 | 2.19 | 5.38 | 1.51 | 3 | 1.69 | 3.52 | 2.47 | 5.69 | 1.78 | 3.23 | 2.97 | 17.9 | 1.91 | 3.72
CCC(C)(C)[C@H](NC(=O)[C@H]1CCCCN1C)C(=O)N(C)[C@H](C[C@@H](OC(C)=O)c1nc(C(=O)N[C@@H](Cc2ccccc2)C[C@H](C)C(=O)O)cs1)C(C)C | < 0.00167 | 0.00743 | < 0.00167 | > 16.7 | < 0.00167 | 0.00583 | < 0.00167 | > 16.7 | < 0.00167 | > 16.7 | 0.00873 | > 16.7 | < 0.00167 | > 16.7 | < 0.00167 | > 16.7 | 0.00217 | > 16.7 | < 0.00167 | > 16.7
